Where two headings read alike, the source gives them in different places.
Experiments:
WBC [1] = assay: Reduction of ROS during perfusion through hollow fiber minimodule; type: cell-based, human; settings: scavenger added to dialysis fluid, counter current, single pass, FIG. 19
Method: WBC were isolated from human blood donation. Cells were stimulated by PMA and after one hour incubation a fluorescence dye (H2DCF-DA) was added to the cells and incubated for another 25 mins. The cell suspension was pumped single pass through a hollow fiber minimodule. On the dialysate pathway dialysis fluid with or without radical scavenger was pumped in counter current. Fluorescence was measured at the dialyzer inlet and outlet and fluorescence reduction in the filter was calculated. Negative control: PBS-buffer without radical scavenger as dialysis fluid, see FIG. 19.

ROS = assay: ROS-inhibition with pre-incubation versus post-incubation (pre-stimulation) of cells; type: cell-based; settings: single substances, FIGS. 31 to 34
Method: Therefore, the ROS-inhibition was tested in two different applications:
1. Pre-incubation (activation of cells after incubation with a substance or combination of substances according to the invention)
2. Post-incubation (addition of a substance or a combination of substances according to the invention after cell activation)
All substances or combinations thereof were tested in the same concentration ranges as in the screening of the combinations as described before.

Interleukin 6 = assay: IL-6 expression in LPS-incubated whole blood by flow cytometry; type: cell-based; settings: whole blood with LPS, substance added directly or after 2 hrs, measured after 4 hrs; for expression of IL6: FIG. 21
Source text: Further we analyzed intracellular IL-6 concentrations—indicator of proinflammatory cell activation—by flow cytometry and by this we were also able to analyze the percentage of […]/activated cells, see FIG. 20. Shown are the results for intracellular IL-6. Further data were generated to show: • (1) That use of LPS as primary stimulus instead of PMA (i.e. other cell activation pathway) is inducing similar activation pattern. LPS could stand for a septic/bacterial infection environment instead of a pro-oxidative environment. • (2) That additional and more complete interventions in the pathophysiological sequence through scavengers reduces also the expression of cellular surface markers like CD11b (an indicator of enhanced adhesion to vascular walls).
Whole blood was incubated with LPS; ethyl pyruvate and N-acetyl-cysteine, respectively were added directly or after 2 hrs. Expression of Interleukin 6 was measured after 4 hrs with flow cytometer, see FIG. 21.

[2] = FIG. 25; cited from earlier work
isolated Leukocytes = assay: Design-of-experiments screening of antioxidants: intracellular free radical formation in PMA-stimulated isolated leukocytes (96-well plate, fluorescence kinetics); type: cell-based, human; settings: model, other substances on a medium level, FIG. 9
Method: An often discussed therapeutic intervention is the addition of substances with antioxidative properties to balance the oxidative/antioxidative system. In our work we performed a systematic screening of such antioxidants, see FIG. 2. The screening was done in a 96-well-plate setup where isolated Leukocytes from healthy donors were pre-incubated with antioxidants for 1 hour. The chosen substances were N-acetyl-cysteine (NAC), gluconic acid (GA), glutathione (GSH) and vitamin […] fluorescence dye was added as a marker for intracellular free radical formation. Afterwards the cells were stimulated by phorbol-myristate-acetate (PMA) and free radical formation was recorded as fluorescence signal over time. The dye in this assay is membrane-permeable and non-fluorescent when it is added. Diffusing once into the cell, enzymes convert it to a readily oxidizable fluorescence dye and the intracellular formation of free radicals can be measured. In order to perform a systematic screening of these substances we would have had to carry out a lot of experiments. Due to the lack of blood donors we chose the methodology of design of experiments, see FIG. 3. Here an experimental plan is generated on statistical basis and a mathematical model can be established. In our case we chose a Centrum Composite Circumscribed-Design (CCC), which is a combination of a full-factorial and a Central Composite-Design (CCD) with a center point. Every single experiment was carried out three times. Besides saving many experiments an additional advantage is the consideration of interactions and quadratic influences. The software tool Mode generates the experimental plan where the combinations of the substances vary according to the chosen CCC-Design, see FIG. 4. Out of the measured fluorescence kinetics a free-radical-inhibition-ratio was calculated and implemented. A ratio of 1 relates to 100% inhibition of free radical formation. The obtained data was fitted by multiple linear regression analysis, see FIG. 5. The influence of single substances, its quadratic terms and interactions between the substances are considered in the shown equation. The quality of the model fit is defined in the summary plot. R^2 stands for regression, Q^2 for prediction quality, MV for model validity and Rep for reproducibility. […] The model has to be further optimised. To identify a model-weakness a closer look into the model is required.

CD11b = CD11b expression of granulocytes in LPS-incubated whole blood by flow cytometry; type: cell-based; settings: LPS 10/100 U/ml 45 minutes, then substance 4 hrs, FIG. 22
Method: Whole blood was incubated with LPS (10/100 U/ml) for 45 minutes. Ethyl pyruvate, N-acetyl-cysteine and gluconate were added to the stimulated system and incubated for 4 hrs. CD11b Expression of granulocytes was measured with flow cytometry, see FIG. 22.

White blood cells (WBC) = assay: Inhibition of cell activation/ROS-generation by addition of free radical scavengers (H2DCF-DA fluorescence); type: cell-based, human; settings: WBC preincubated 30-60 minutes, PMA or LPS stimulus, FIG. 15
Method: Other macromolecules with SH sites could also be applied.
White blood cells (WBC) were isolated from freshly donated human whole blood. This was done by collecting whole blood from healthy donors on Heparin anticoagulation. Leukocytes were isolated out of the whole blood with the help of an isolation gradient (Polymorphprep). Isolated Leukocytes were diluted in PBS or RPMI 1640 cell culture media and a concentration of 2×10^6/ml was chosen. The cells were stored at 37° in 5% CO2. The cells were preincubated with the substances at 37° C. for 30-60 minutes. Afterwards the cells were stimulated with 50 ng/ml PMA or 30 EU/ml LPS. For ROS-measurement a fluorescence dye (dichlorodihydrofluorescein-diacetate, H2DCF-DA) was added at 10 μM final concentration. The cells were incubated with the substance, the fluorescence dye and the activator for 2 hrs and the fluorescence intensity kinetics was measured over time. To compare the result between two substances, the fluorescence intensity at a certain time point, e.g. 30 minutes) was recorded. For comparison the fluorescence at a certain time is shown in the diagram in FIG. 15.

[3] = cited from earlier work
WBC [4] = assay: Inhibition of cell activation/ROS-generation by free radical scavengers via the membrane; type: cell-based, human; settings: low flux membrane, incubation 60 mins, PMA, FIG. 17
Method: WBC were isolated from human blood donation. Cells were separated by a membrane from the second compartment which comprises a buffer-system containing a radical scavenger (incubation time 60 mins). Afterwards a fluorescence dye (H2DCF-DA) was added to the cells and incubated for 25 mins. Finally stimulation of WBCs was performed by PMA and fluorescence was measured over time, see FIG. 17.
Positive control: with stimulus (2nd compartment PBS-buffer),
Negative control: without stimulus (2nd compartment PBS-buffer)

SMILES | free radicals on the blood side in the dialyzer and in the intracellular compartment (WBC [1]) | ROS inhibition (ROS) | number of IL-6 positive cells (Interleukin 6) | expression of IL6 (Interleukin 6) | influence of the concentration of a single substance on the ROS-Inhibition ratio (isolated Leukocytes) | expression of CD11b adhesion marker (CD11b) | free radical formation (White blood cells (WBC)) | also measured
CC(=O)N[C@@H](CS)C(=O)O [N-acetyl-cysteine] | free radicals are reduced | 60-80% | reduce the number of IL-6 positive cells | reduce the expression of IL6 | quadratic character | reduce expression of CD11b adhesion marker | able to inhibit free radical formation | plasma level at which first beneficial effects could be shown [2]: 12 µM; tolerability of rather high plasma levels ([3]; application as an antidote in acute situations): well tolerated; plasma levels ([3]; intravenous application, compared with oral): higher plasma levels; bioavailability ([3]; oral application): poor bioavailability; plasma levels ([3]; oral application): 3000 to 30000 nM
O=C(O)[C@H](O)[C@@H](O)[C@H](O)[C@H](O)CO [gluconic acid] |  | 15-30% |  |  | quadratic character | reduce expression of CD11b adhesion marker | able to inhibit free radical formation | free radical formation, scavenger acting through the membrane (WBC [4]): capable to inhibit
O=C1O[C@H]([C@@H](O)CO)C(O)=C1O [vitamin C] |  | 20-80% |  |  | negative gradient with increasing concentration |  |  | 
CCOC(=O)C(C)=O [ethyl pyruvate] | free radicals are reduced |  | reduce the number of IL-6 positive cells | reduce the expression of IL6 |  | reduce expression of CD11b adhesion marker |  | 
N[C@@H](CCC(=O)N[C@@H](CS)C(=O)NCC(=O)O)C(=O)O [glutathione] |  | 55-65% |  |  | negative gradient with increasing concentration |  | able to inhibit free radical formation | 
CC(=O)N[C@H]1C(O)O[C@H](CO)[C@@H](O)[C@@H]1O (stereo partly drawn) [N-acetyl-glucosamine] |  |  |  |  |  |  | able to inhibit free radical formation | 

Source: patent US20100204328A1, “Solution and Method to Reduce, Treat and/or Prevent Oxidative Stress and Cell Activation” (priority 2006, published 2010)
